Test results published in patent US7354711B2, “Methods for inhibiting immunostimulatory DNA associated responses” (University of Iowa Research Foundation, priority 1997, dated 2008).

Experiments:
Type in all cases: cell-based, mouse
WEHI 231 cells [1] = assay: DNA fragmentation assay (α-sIgM-induced apoptosis); details: 0.1 μM quinacrine, 6 μg/mL ODN 1760, α-sIgM, 16 hours
Method: The DNA fragmentation assay was carried out generally as follows. WEHI 231 cells were incubated with 0.5 μCi/milliliter [^3H] thymidine for 3 hours, centrifuged, resuspended in 2 milliliters of fresh medium at 2×10^5/milliliter, and incubated in a 24-well plate with additions as indicated. After incubation for 16-18 hours, 1 milliliter aliquots of the cells were centrifuged, washed with 200 μliters PBS. This suspension was drawn into a pipette tip containing 25 μliters of 2% SDS, and the mixture was immediately ejected into a well of a 0.8% agarose TBE gel containing 0.5 μliter/milliliter ethidium bromide. The gel was electrophoresed for 1 hour at 65 volts, destained in water, and photographed under ultraviolet light. The lanes of the gel were cut into three approximately equal portions. […] The gel portions were melted in glass scintillation vials and mixed with a 20 milliliter of scintillation cocktail and counted in a scintillation counter. The amount of fragmented DNA (DNA in the second and third gel pieces) was expressed as a percentage of the total counts recovered in the lane.
Referring to the experiments summarized in FIG. 2a, WEHI 231 cells (2×10^5 per milliliter) were incubated with or without 6 μgrams/milliliter ODN 1760, 10 μgrams/milliliter α-sIgM, or 0.1 μM quinacrine as indicated. Live cells were counted daily. […]

7TD1 cells = assay: Inhibition of 7TD1 cell growth
Method: One particularly useful cell line for the assay of immunostimulatory DNA action is the mouse-mouse hybridoma plasma cell line 7TD1(ATTC #CRL 1851), which requires exoqenous IL-6 for growth, and has been used to characterize and assay IL-6 (Papadopolous et al., 1995. J. Clin. Lab. Anal. 9:234-7; Krakauer, 1993. J. Immunoassay 14:267-77).
The 7TD1 cells were grown in RPMI 1640 supplemented with 10% fetal bovine serum (heat inactivated at 65° C., 1 hour), 0.3 grams/Liter L-glutamine, 50 milligrams/Liter gentamycin, 0.05 mM 2-mercaptoethanol, and 10 units per milliliter murine IL-6 in a 37° C. humid atmosphere with 5% CO2. Viable 7TD1 cells were counted in a hemocytometer chamber in duplicate after dilution with 0.4% trypan blue.
The 7TD1 cells were incubated for five days and were washed twice with medium to remove IL-6, and resuspended at 2×10^4 per milliliter in medium. Cell counts were performed and the percent inhibition of growth was computed. The term “anti” refers to 40 nanograms/milliliter neutralizing antibody to IL-6.

WEHI 231 cells [2] = assay: Inhibition of CpG-ODN 1760 protection against α-sIgM-induced inhibition of [3H] thymidine uptake
Method: The assay of [^3H] Thymidine incorporation was carried out as follows. WEHI 231 cells (200 μL at 2×10^5/milliliter, in duplicate or triplicate) were incubated in a 96-well plate (Costar, Cambridge Mass.). Additions were made as indicated. After incubating for 16 hours, 0.5 μCi [methyl-^3H] thymidine (2 Ci/millimole, DuPont NEN, Boston Mass.) was added to each well, and the cells were incubated for another 4 hours. Cellular DNA was then captured onto glass fiber filters (Whatman 934AH) using a cell harvester (Brandel, Gaithersberg Md.). The filters were dried, placed into plastic scintillation vials with 10 milliliters of scintillation cocktail (EconoSafe, Research Products International, Mount Prospect Ill.), and counted in a liquid scintillation counter (Beckman LS-3133 T). The ^3H recovered on the filter was expressed as a fraction of the ^3H added.
Referring to experiments summarized in FIG. 1, WEHI 231 cells (ca. 2×10^5 per milliliter) were incubated for 16 hours at 37° C. with 10 μgrams/milliliter α-sIgM, 6 μgrams/milliliter ODN 1760, and the indicated concentration of the compound. After 16 hours, 0.5 μCi [^3H] thymidine was added. After 4 more hours incubation, the cellular DNA was harvested onto glass fiber filters. The dry filters were counted in a liquid scintillation counter.
Each experimental point was the mean of at least duplicate measurements.
Referring to the experiments summarized in FIG. 3, 10 μgrams/milliliter α-sIgM and the indicated concentrations of ODN 1760 and quinacrine were added simultaneously to WEHI 231 cells. Thymidine incorporation was estimated at 16 hours as described for Example 1.
Referring to the experiments summarized in FIG. 4, WEHI 231 cells were incubated with α-sIgM and ODN 1760. At times thereafter 0.1 μM quinacrine was added (data shown in the left three bars). Cells were incubated with 10 μgrams/milliliter (α-sIgM and ODN 1760 (6 μgrams/milliliter, phosphorothioate or a phosphodiester ODN with the same sequence as 1760 (PD ODN) (30 μM at time 0 hours and 8 hours; data represented in right six bars in FIG. 4). [^3H] thymidine incorporation was estimated at 16 hours.
The symbol — indicates no change. Me and Et indicate —CH3 and —CH2CH3 respectively. Aromatic substituents are in the para position except as indicated. The activity is —log10 of the concentration (M) required for half maximal inhibition of CpG-ODN effect on [^3H] thymidine uptake in the presence of α-sIgM.

[3] = 6 μg/mL ODN 1760, 0.1 μM compound
[4] = 6 μg/mL ODN 1760, 0.3 μM compound
[5] = 6 μg/mL ODN 1760, 1 μM compound
[6] = 10 μg/mL IL-6 + 0.1 μM compound
[7] = 10 μg/mL IL-6 + 0.3 μM compound

How did the “Reversal of ODN 1760 protection, percentage of fragmented DNA (FIG. 2b)” value (WEHI 231 cells [1]) turn out when `CCN(CC)CCCC(C)Nc1c2ccc(Cl)cc2nc2ccc(OC)cc12` (stereo not drawn) [quinacrine] was run?
Its value is “reversed this protection”.

And the “7TD1 cells/μL” value (7TD1 cells; [3])?
The value was 20 cells/μL.

And the “% Growth Inhibition” value (7TD1 cells; [3])?
The value was 95%.

What about the “7TD1 cells/μL” value (7TD1 cells; [4]) of the same compound?
The value was 20 cells/μL.

And the “% Growth Inhibition” value (7TD1 cells; [4])?
The value was 95%.

What about the “7TD1 cells/μL” value (7TD1 cells; [5]) of the same compound?
The value was 15 cells/μL.

What about the “% Growth Inhibition” value (7TD1 cells; [5]) of the same compound?
The value was 96.3%.

And the “7TD1 cells/μL” value (7TD1 cells; [6])?
Its value is 707 cells/μL.

What about the “% Growth Inhibition” value (7TD1 cells; [6]) of the same compound?
Its value is 20.2%.

And the “7TD1 cells/μL” value (7TD1 cells; [7])?
The value was 595 cells/μL.

What about the “% Growth Inhibition” value (7TD1 cells; [7]) of the same compound?
Its value is 32.9%.

And the “7TD1 cells/μL” value (7TD1 cells; 10 μg/mL IL-6 + 1 μM compound)?
The value was 587 cells/μL.

And the “% Growth Inhibition” value (7TD1 cells; 10 μg/mL IL-6 + 1 μM compound)?
Its value is 33.8%.

What about the “Effect on IL-6-induced growth” value (7TD1 cells; 7TD1 cells, IL-6) of the same compound?
The value was “little effect”.

And the “Effect on growth stimulation by CpG-ODN” value (7TD1 cells; 7TD1 cells, ODN 1760)?
Its value is “blocked”.

And the “Block of CpG-ODN action on subsequent addition (FIG. 4)” value (WEHI 231 cells [2]; 0.1 μM quinacrine added 8 hours after the CpG-ODN)?
Its value is “blocked the action of CpG-ODN”.

What about the “Block of the action of phosphodiester ODN (FIG. 4)” value (WEHI 231 cells [2]; 0.1 μM quinacrine, PD ODN 30 μM at 0 and 8 hours) of the same compound?
Its value is “effective in blocking”.

And the “vs. Chloroquine, fold” value (WEHI 231 cells [2]; Table 3, 9-aminoacridines)?
The value was 7.76 fold.

And the “Activity,-log10 (concentration (M) for half maximal inhibition of CpG-ODN effect on [3H] thymidine uptake in the presence of α-sIgM)” value (WEHI 231 cells [2]; Table 3, 9-aminoacridines, WEHI 231 cells)?
Its value is 7.85.

What about the “Inhibition of the CpG-ODN effect (FIG. 1)” value (WEHI 231 cells [2]; at nanomolar concentrations, 10 μg/mL α-sIgM, 6 μg/mL ODN 1760) of the same compound?
The value was “completely inhibited”.

And the “Inhibition at increasing concentrations of ODN 1760 (non-competitive kinetics, FIG. 3)” value (WEHI 231 cells [2]; range of concentrations of ODN 1760 and quinacrine, 10 μg/mL α-sIgM)?
Its value is “increasing the concentration of ODN 1760 did not overcome the inhibitory effect”.
